In the assay the target is glucan synthase (GS) prepared from Candida albicans MY1055 (Candida albicans, UniProt O13428). The assay is described as follows: Glucan synthase inhibition (polymerization assay, 96-well). The class given is biochemical. The settings on record: GS from C. albicans MY1055; 60 min incubation at 22° C.; read-out: Candida Albicans GS IC50 (converted). A digest of the protocol:
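Partially purified glucan synthase from C. albicans MY1055 membranes incorporated 0.5 mM ³H-UDPG with 25 μM GTP-γ-S, HEPES pH 7.5, over 60 min at 22 °C. TCA-precipitated glucan was counted by scintillation. IC50 (ng/mL) came from sigmoidal fits of duplicate 3-fold dilution series.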
Chain of glucan synthase (GS) prepared from Candida albicans MY1055 (O13428 1-1897): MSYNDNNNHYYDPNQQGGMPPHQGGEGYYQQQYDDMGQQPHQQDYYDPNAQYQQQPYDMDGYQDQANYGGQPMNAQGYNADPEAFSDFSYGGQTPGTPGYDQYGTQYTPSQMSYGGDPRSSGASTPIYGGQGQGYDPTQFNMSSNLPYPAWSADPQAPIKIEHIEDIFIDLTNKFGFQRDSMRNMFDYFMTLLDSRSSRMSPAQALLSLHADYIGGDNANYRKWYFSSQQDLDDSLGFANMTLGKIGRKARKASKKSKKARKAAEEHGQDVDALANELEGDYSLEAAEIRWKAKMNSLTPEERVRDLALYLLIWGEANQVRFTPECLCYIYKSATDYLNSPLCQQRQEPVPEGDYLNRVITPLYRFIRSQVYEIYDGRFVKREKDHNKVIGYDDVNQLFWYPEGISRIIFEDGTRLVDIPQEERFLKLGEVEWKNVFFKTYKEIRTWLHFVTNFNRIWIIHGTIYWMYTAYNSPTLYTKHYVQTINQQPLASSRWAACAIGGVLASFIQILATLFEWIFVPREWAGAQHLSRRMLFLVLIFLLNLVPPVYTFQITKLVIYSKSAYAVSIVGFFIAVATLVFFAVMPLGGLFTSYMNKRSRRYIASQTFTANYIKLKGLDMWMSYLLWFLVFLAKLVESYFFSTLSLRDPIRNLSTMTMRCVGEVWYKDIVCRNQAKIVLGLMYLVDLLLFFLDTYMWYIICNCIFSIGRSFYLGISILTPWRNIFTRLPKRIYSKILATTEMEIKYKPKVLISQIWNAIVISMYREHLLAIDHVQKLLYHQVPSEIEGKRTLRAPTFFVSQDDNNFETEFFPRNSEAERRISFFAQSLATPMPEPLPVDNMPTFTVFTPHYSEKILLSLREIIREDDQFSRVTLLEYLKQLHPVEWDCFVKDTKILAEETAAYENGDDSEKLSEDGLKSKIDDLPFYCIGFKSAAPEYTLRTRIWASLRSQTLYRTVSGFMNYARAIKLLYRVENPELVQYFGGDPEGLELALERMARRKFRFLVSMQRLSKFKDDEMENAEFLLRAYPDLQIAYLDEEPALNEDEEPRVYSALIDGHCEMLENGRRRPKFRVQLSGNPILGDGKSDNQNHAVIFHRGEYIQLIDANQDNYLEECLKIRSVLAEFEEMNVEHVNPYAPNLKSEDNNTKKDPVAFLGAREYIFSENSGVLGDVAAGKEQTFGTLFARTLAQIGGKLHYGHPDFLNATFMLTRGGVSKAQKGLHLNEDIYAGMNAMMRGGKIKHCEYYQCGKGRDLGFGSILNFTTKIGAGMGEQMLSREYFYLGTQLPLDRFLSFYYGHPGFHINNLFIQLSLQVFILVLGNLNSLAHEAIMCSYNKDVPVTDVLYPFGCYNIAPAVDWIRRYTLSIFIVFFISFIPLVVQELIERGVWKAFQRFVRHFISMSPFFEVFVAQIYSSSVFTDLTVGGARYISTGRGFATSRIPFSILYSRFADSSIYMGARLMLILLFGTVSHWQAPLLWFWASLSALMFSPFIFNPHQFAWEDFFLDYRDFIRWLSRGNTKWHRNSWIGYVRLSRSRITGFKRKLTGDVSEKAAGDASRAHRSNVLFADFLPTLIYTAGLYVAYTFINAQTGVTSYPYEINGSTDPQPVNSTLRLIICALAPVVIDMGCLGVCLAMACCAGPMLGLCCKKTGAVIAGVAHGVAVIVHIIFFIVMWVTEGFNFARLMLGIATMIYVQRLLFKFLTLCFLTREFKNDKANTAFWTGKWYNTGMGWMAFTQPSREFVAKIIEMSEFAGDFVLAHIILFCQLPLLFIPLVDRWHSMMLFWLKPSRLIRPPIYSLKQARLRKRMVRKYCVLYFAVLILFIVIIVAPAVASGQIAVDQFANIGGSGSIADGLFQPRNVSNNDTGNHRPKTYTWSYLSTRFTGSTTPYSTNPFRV
Usually IC50 stands for the point on the concentration scale where inhibition reaches its midpoint. In the case of `CCCc1ncnn1[C@@H]1C[C@@]23COC[C@](C)([C@@H]2CC[C@H]2C3=CC[C@@]3(C)[C@H](C(=O)O)[C@@](C)([C@H](C)C(C)C)CC[C@]23C)[C@H]1OC[C@](C)(N)C(C)C` [Example 169, (1S,4aR,6aS,7R,8R,10aR,10bR,12aR,14R,15R)-15-[[(2R)-2-amino-2,3-dimethylbutyl]oxy]-8-[(1R)-1,2-dimethylpropyl]-14-(5-propyl-1H-1,2,4-triazol-1-yl)-1,6,6a,7,8,9,10,10a,10b,11,12,12a-dodecahydro-1,6a,8,10a-tetramethyl-4H-1,4a-propano-2H-phenanthro[1,2-c]pyran-7-carboxylic acid], the IC50 was 4.41 nM.
In the case of `CC(C)[C@@H](C)[C@@]1(C)CC[C@]2(C)[C@H]3CC[C@@H]4[C@@]5(COC[C@@]4(C)[C@@H](OC[C@](C)(N)C(C)C)[C@H](n4ncnc4N4CCOCC4)C5)C3=CC[C@@]2(C)[C@@H]1C(=O)O` [Example 148, (1S,4aR,6aS,7R,8R,10aR,10bR,12aR,14R,15R)-15-[[(2R)-2-amino-2,3-dimethylbutyl]oxy]-8-[(1R)-1,2-dimethylpropyl]-14-[5-(4-morpholinyl)-1H-1,2,4-triazol-1-yl]-1,6,6a,7,8,9,10,10a,10b,11,12,12a-dodecahydro-1,6a,8,10a-tetramethyl-4H-1,4a-propano-2H-phenanthro[1,2-c]pyran-7-carboxylic acid], the IC50 was 18 nM.
With `CC(C)[C@@H](C)[C@@]1(C)CC[C@]2(C)[C@H]3CC[C@@H]4[C@@]5(COC[C@@]4(C)[C@@H](OC[C@](C)(N)C(C)(C)C)[C@H](n4ncnc4-c4ccc(CN(C)C)cc4)C5)C3=CC[C@@]2(C)[C@@H]1C(=O)O` [Example 239, (1S,4aR,6aS,7R,8R,10aR,10bR,12aR,14R,15R)-15-[[(2R)-2-amino-2,3,3-trimethylbutyl]oxy]-14-[5-[4-[(dimethylamino)methyl]phenyl]-1H-1,2,4-triazol-1-yl]-8-[(1R)-1,2-dimethylpropyl]-1,6,6a,7,8,9,10,10a,10b,11,12,12a-dodecahydro-1,6a,8,10a-tetramethyl-4H-1,4a-propano-2H-phenanthro[1,2-c]pyran-7-carboxylic acid], the IC50 is 0.127 nM.

Source of the values: patent publication US8188085B2, “Antifungal agents” (Merck Sharp & Dohme Corp., priority 2008, dated 2012).
